ChEMBL document CHEMBL5236617, “Rapid Evolution of a Fragment-like Molecule to Pan-Metallo-Beta-Lactamase Inhibitors: Initial Leads toward Clinical Candidates” (J Med Chem, 2022)
“And” between values parts separate entries of the source, which are not always exact repeats. Equal entries are not always repeated. The source made the active and inactive calls. The rule behind the calls is not given here.

tested on: not listed separately; experiment: Inhibition of GST-tagged bacterial beta-lactamase […] expressed in Escherichia coli BL21(DE3) using CCF2-FA as substrate by fluorescence assay; set-up: species or system Bacteria; details: not given

Question: Which IC50 does the source give for `CNS(=O)(=O)c1cccc(-c2ccc(C)cc2)c1-c1nnn[nH]1` here?
Answer: The IC50 was 15.8 µM.

Question: Which IC50 does the source give for `O=C(O)COc1ccc2c(c1)CCN(C(=O)C(CS)CCc1ccccc1)C2C(=O)O` (stereo not drawn) here?
Answer: The IC50 was 0.000243 µM.

Question: With `Nc1cc(-c2nnn[nH]2)c(S(N)(=O)=O)cc1S(N)(=O)=O` as the compound, how does the IC50 read?
Answer: Its IC50 is 0.0033 µM.

Question: Which IC50 does the source give for `Cc1ccc(-c2cccc(S(N)(=O)=O)c2-c2nnn[nH]2)cc1` here?
Answer: The IC50 was 0.0039 µM and 0.0037 µM.

Question: Which IC50 does the source give for `NS(=O)(=O)c1nccc(-c2ccc(CO)cc2)c1-c1nn[nH]n1` here?
Answer: Its IC50 is 0.035 µM.

Question: For `Cc1ccc(-c2cccc(C(=O)O)c2-c2nnn[nH]2)cc1`, which IC50 is on record?
Answer: Its IC50 is 3.17 µM.

tested on: not listed separately; experiment: Inhibition of GST-tagged bacterial beta-lactamase IMP-1 expressed in Escherichia coli BL21(DE3) using CCF2-FA as substrate by fluorescence assay; set-up: species or system Bacteria; details: not given

Question: Which IC50 does the source give for `CNS(=O)(=O)c1cccc(-c2ccc(C)cc2)c1-c1nnn[nH]1` here?
Answer: The IC50 was > 20 µM.

Question: For `O=C(O)COc1ccc2c(c1)CCN(C(=O)C(CS)CCc1ccccc1)C2C(=O)O` (stereo not drawn), which IC50 is on record?
Answer: Its IC50 is 0.000155 µM.

Question: Which IC50 does the source give for `Nc1cc(-c2nnn[nH]2)c(S(N)(=O)=O)cc1S(N)(=O)=O` here?
Answer: The IC50 was 0.017 µM.

Question: For `Cc1ccc(-c2cccc(S(N)(=O)=O)c2-c2nnn[nH]2)cc1`, which IC50 is on record?
Answer: Its IC50 is 0.064 µM.

Question: Which IC50 does the source give for `NS(=O)(=O)c1nccc(-c2ccc(CO)cc2)c1-c1nn[nH]n1` here?
Answer: Its IC50 is 0.369 µM.

Question: Which IC50 does the source give for `Cc1ccc(-c2cccc(C(=O)O)c2-c2nnn[nH]2)cc1` here?
Answer: Its IC50 is 2.41 µM.

tested on: not listed separately; experiment: Inhibition of GST-tagged bacterial beta-lactamase VIM-1 expressed in Escherichia coli BL21(DE3) using CCF2-FA as substrate by fluorescence assay; set-up: species or system Bacteria; details: not given

Question: With `CNS(=O)(=O)c1cccc(-c2ccc(C)cc2)c1-c1nnn[nH]1` as the compound, how does the IC50 read?
Answer: The IC50 was 18 µM.

Question: With `O=C(O)COc1ccc2c(c1)CCN(C(=O)C(CS)CCc1ccccc1)C2C(=O)O` (stereo not drawn) as the compound, how does the IC50 read?
Answer: The IC50 was 0.00248 µM.

Question: For `Nc1cc(-c2nnn[nH]2)c(S(N)(=O)=O)cc1S(N)(=O)=O`, which IC50 is on record?
Answer: Its IC50 is 0.007 µM.

Question: With `Cc1ccc(-c2cccc(S(N)(=O)=O)c2-c2nnn[nH]2)cc1` as the compound, how does the IC50 read?
Answer: The IC50 was 0.0575 µM and 0.057 µM.

Question: Which IC50 does the source give for `NS(=O)(=O)c1nccc(-c2ccc(CO)cc2)c1-c1nn[nH]n1` here?
Answer: The IC50 was 0.269 µM.

Question: With `Cc1ccc(-c2cccc(C(=O)O)c2-c2nnn[nH]2)cc1` as the compound, how does the IC50 read?
Answer: The IC50 was 6.96 µM.

tested on: Escherichia coli; experiment: Potentiation of imipenem-induced antibacterial activity against NDM-1 expressing Escherichia coli assessed as imipenem MIC incubated for 22 to 24 hrs (reference value: 32 ug/ml); assay type: functional; details: time 22-24 hrs

Question: With `Cc1ccc(-c2cccc(S(N)(=O)=O)c2-c2nnn[nH]2)cc1` as the compound, how does the MITC95 read?
Answer: Its MITC95 is 1.48 µM.

Question: Which MITC95 does the source give for `NS(=O)(=O)c1nccc(-c2ccc(CO)cc2)c1-c1nn[nH]n1` here?
Answer: Its MITC95 is 0.558 µM.

tested on: Serratia marcescens; experiment: Potentiation of imipenem-induced antibacterial activity against IMP-1 expressing Serratia marcescens assessed as imipenem MIC incubated for 22 to 24 hrs (reference value: 16 ug/ml); assay type: functional; details: time 22-24 hrs

Question: Which MITC95 does the source give for `Cc1ccc(-c2cccc(S(N)(=O)=O)c2-c2nnn[nH]2)cc1` here?
Answer: Its MITC95 is 13.8 µM.

Question: For `NS(=O)(=O)c1nccc(-c2ccc(CO)cc2)c1-c1nn[nH]n1`, which MITC95 is on record?
Answer: Its MITC95 is 5.19 µM.

tested on: Klebsiella pneumoniae; experiment: Potentiation of imipenem-induced antibacterial activity against VIM-1 expressing Klebsiella pneumoniae assessed as imipenem MIC incubated for 22 to 24 hrs (reference value: 16 ug/ml); assay type: functional; details: time 22-24 hrs

Question: With `Cc1ccc(-c2cccc(S(N)(=O)=O)c2-c2nnn[nH]2)cc1` as the compound, how does the MITC95 read?
Answer: The MITC95 was 127 µM.

Question: With `NS(=O)(=O)c1nccc(-c2ccc(CO)cc2)c1-c1nn[nH]n1` as the compound, how does the MITC95 read?
Answer: The MITC95 was 11.76 µM.

tested on: not listed separately; experiment: Selectivity ratio of MITC50 for NDM-1 expressing Escherichia coli to IC50 for GST-tagged bacterial beta-lactamase […]; details: not given

Question: Which Selectivity ratio does the source give for `Cc1ccc(-c2cccc(S(N)(=O)=O)c2-c2nnn[nH]2)cc1` here?
Answer: Its Selectivity ratio is 400.

tested on: not listed separately; experiment: Selectivity ratio of MITC50 for IMP-1 expressing Serratia marcescens to IC50 for GST-tagged bacterial beta-lactamase IMP-1; details: not given

Question: For `Cc1ccc(-c2cccc(S(N)(=O)=O)c2-c2nnn[nH]2)cc1`, which Selectivity ratio is on record?
Answer: The Selectivity ratio was 215.

tested on: not listed separately; experiment: Selectivity ratio of MITC50 for VIM-1 expressing Klebsiella pneumoniae to IC50 for GST-tagged bacterial beta-lactamase VIM-1; details: not given

Question: For `Cc1ccc(-c2cccc(S(N)(=O)=O)c2-c2nnn[nH]2)cc1`, which Selectivity ratio is on record?
Answer: Its Selectivity ratio is 2230.

tested on: not listed separately; experiment: Inhibition of Cav1.5 (unknown origin); set-up: species or system Homo sapiens; details: not given

Question: Which IC50 does the source give for `NS(=O)(=O)c1nccc(-c2ccc(CO)cc2)c1-c1nn[nH]n1` here?
Answer: The IC50 was > 30 µM.

tested on: Klebsiella pneumoniae; experiment: Antibacterial activity against Klebsiella pneumoniae MB9249 expressing IMP-26 infected in cyclophosphamide treated DBA/2 mouse assessed as reduction in bacterial burden in kidney at 10 to 50 mg/kg, sc administered three times for 1 day and measured after 24 hrs post injection; assay type: functional, organism-based; details: dose 10-50 mg/kg

Question: For `NS(=O)(=O)c1nccc(-c2ccc(CO)cc2)c1-c1nn[nH]n1`, which Activity is on record?
Answer: Its Activity is “inactive”.

tested on: Klebsiella pneumoniae; experiment: Antibacterial activity against Klebsiella pneumoniae MB9249 expressing IMP-26 infected in cyclophosphamide treated DBA/2 mouse assessed as reduction in bacterial burden in spleen at 10 to 50 mg/kg, sc administered three times for 1 day and measured after 24 hrs post injection; assay type: functional, organism-based; details: dose 10-50 mg/kg

Question: With `NS(=O)(=O)c1nccc(-c2ccc(CO)cc2)c1-c1nn[nH]n1` as the compound, how does the Activity read?
Answer: The Activity was “inactive”.

tested on: Klebsiella pneumoniae; experiment: Antibacterial activity against Klebsiella pneumoniae MB9249 expressing IMP-26 infected in cyclophosphamide treated DBA/2 mouse assessed as reduction in bacterial burden in kidney at 10 to 50 mg/kg, sc administered three times for 1 day and measured after 24 hrs post injection in presence of imipenem; assay type: functional, organism-based; details: dose 10-50 mg/kg

Question: With `NS(=O)(=O)c1nccc(-c2ccc(CO)cc2)c1-c1nn[nH]n1` as the compound, how does the Activity read?
Answer: The Activity was “Active”.

tested on: Klebsiella pneumoniae; experiment: Antibacterial activity against Klebsiella pneumoniae MB9249 expressing IMP-26 infected in cyclophosphamide treated DBA/2 mouse assessed as reduction in bacterial burden in spleen at 10 to 50 mg/kg, sc administered three times for 1 day and measured after 24 hrs post injection in presence of imipenem; assay type: functional, organism-based; details: dose 10-50 mg/kg

Question: Which Activity does the source give for `NS(=O)(=O)c1nccc(-c2ccc(CO)cc2)c1-c1nn[nH]n1` here?
Answer: Its Activity is “Active”.

tested on: Escherichia coli; experiment: Antibacterial activity against Escherichia coli CLB30005 expressing NDM-1 assessed as growth inhibition in presence of ZnSO4; assay type: functional, organism-based; details: not given

Question: For `Cc1ccc(-c2cccc(S(N)(=O)=O)c2-c2nnn[nH]2)cc1`, which Activity is on record?
Answer: Its Activity is “inactive”.
